Reference: publication PMC10472371, “Discovery of E2730, a novel selective uncompetitive GAT1 inhibitor, as a candidate for anti‐seizure medication” (Epilepsia Open, 2023)
Read-outs that look alike come from different tables or passages of the source. Marks after values point to notes of the source that are not given here.

How the values were obtained:
[1] = target: T1, hGABAAR (containing α1, β3, and γ2 subunits) (Homo sapiens, UniProt P14867+P18507+P28472); assay: GABA-induced current in hGABAAR-expressing HEK-293 cells, whole-cell patch-clamp; format: cell-based
T1 construct: expressed in transfected cells; host or cells: HEK-293
Method: Data represent the mean ± SEM of 3 independent experiments. Control response is GABA (13 μM)-induced current amplitude. […] Cells in voltage clamp were maintained at -80 mV throughout the experiments following the voltage protocol.

[2] = system: corneal kindling mice; settings: cited from earlier work
[3] = target: T2, hNav1.2 (Homo sapiens, UniProt Q99250); assay: Veratridine-induced hNav1.2 activation in CHO cells, membrane potential assay; format: cell-based; settings: veratridine 50 μM
T2 construct: expressed in transfected cells; host or cells: CHO
Method: Data represent the mean ± SEM of three independent experiments. Effects of E2730 and desipramine (Sigma-Aldrich, MO) on hNav1.2 activity were evaluated in CHO cells stably expressing hNav1.2 using a fluorescent-based membrane potential assay (Molecular Devices, CA). Activation of hNav1.2 was induced by veratridine (50 μM) and the change of fluorescence (excitation wavelength, 480 nm; emission wavelength, 540 nm) was recorded using Fluorescence Drug Screening System 6000 (Hamamatsu Photonics, Japan).

[4] = system: amygdala kindling rats; assay: Amygdala kindling in rats; format: in vivo, rat
From the text: A tripolar electrode was implanted into the basolateral amygdala of Wistar‐Kyoto rats (male, 7 weeks old; Charles River Laboratories Japan, Japan). After at least 5 days of recovery, the amygdala was stimulated using an electronic stimulator at currents starting at 0.04 mA (50 Hz, 1 millisecond monophasic square‐wave pulses, 1‐second duration each) then increasing by 25% to a 30‐second duration until the after‐discharge threshold (ADT) was attained. ADT was defined as the current at which abnormal electroencephalogram and at least Racine's stage‐1 seizure behavior were observed. In the Racine's stage, seizure severity was classified as: 1, mouth and facial movements; 2, head nodding; 3, forelimb clonus; 4, rearing; 5, rearing and falling. From the next day onwards, electrical stimulation at the previously determined ADT was performed once daily in each rat. The rats showing ≥3 consecutive Racine stage‐5 seizures were deemed epileptic and used for drug evaluation. The pre‐ADT (i.e. baseline) seizure threshold of each rat was established prior to drug administration. After >1 hour following the determination of pre‐ADT seizure threshold, E2730 (5–50 mg/kg), levetiracetam (25 mg/kg), or vehicle was orally administered to the rats. One hour after the administration, the post‐ADT seizure threshold of each rat was ascertained, and the ratios of post‐ADT to pre‐ADT readings were analyzed.

[5] = system: 6 Hz-44 mA psychomotor seizure mice; assay: Pharmaco-resistant 6 Hz-44 mA psychomotor seizures in mice; format: in vivo, mouse
Method: Psychomotor seizures were stimulated by applying currents (44 mA, 6 Hz, 0.2 millisecond rectangular pulse width, 3‐second duration each) via a corneal electrode (SEN‐7203; Nihon Kohden). E2730 (5–50 mg/kg), levetiracetam (Tokyo Chemical Industry; 20–200 mg/kg), or vehicle was orally administered to ddY mice (male, 5 weeks old; Japan SLC Inc.) 1 hour before electrostimulation. […] Behavioral seizures observed in mice were classified into the following four types: stun, forelimb clonus, twitching of the vibrissae, and Straub‐tail.

[6] = system: ddY mice; settings: ref Levy et al.[39]; cited from earlier work
[7] = system: extracellular GABA concentration in mouse hippocampus; assay: Microdialysis: extracellular GABA concentration in mouse hippocampus; format: in vivo; settings: mouse hippocampus, oral; E2730 10-100 mg/kg, tiagabine 3-30 mg/kg
Method: A guide cannula was implanted in the left hippocampus (2.7 mm posterior, 3.3 mm left, and 1.8 mm below from the bregma) of ddY mice (male, 5 weeks old). After 5–7 days of recovery, a microdialysis probe (Eicom) was inserted into the left hippocampus through the guide cannula. The tip of the microdialysis probe reached 4.8 mm below the bregma. The next day, the probe was connected to a perfusion tube and perfused with Ringer solution (containing 147.0 mM NaCl, 4.7 mM KCl, 0.6 mM MgSO4, 2.5 mM CaCl2, 5.0 mM HEPES, pH 7.4) at a flow rate of 1.5 μL/min. After ≥160 minutes of perfusion, collection of the perfusate (30 μL/20 min/fraction) was initiated, and 12 fractions per animal were collected for 240 minutes. E2730 (10–100 mg/kg), tiagabine (3–30 mg/kg), or vehicle was orally administered 72 minutes after initiating sample collection. Tiagabine was used as a reference ASM of a non‐competitive GAT1 inhibitor. Perfusate was switched from Ringer solution to high‐potassium Ringer solution (51.7 mM NaCl, 100.0 mM KCl, 0.6 mM MgSO4, 2.5 mM CaCl2, 5.0 mM HEPES, pH 7.4) after 127 minutes following the collection. GABA concentration in each sample was measured by a high‐performance liquid chromatography with tandem mass spectrometry method.

T1 sequence (P14867 28-456): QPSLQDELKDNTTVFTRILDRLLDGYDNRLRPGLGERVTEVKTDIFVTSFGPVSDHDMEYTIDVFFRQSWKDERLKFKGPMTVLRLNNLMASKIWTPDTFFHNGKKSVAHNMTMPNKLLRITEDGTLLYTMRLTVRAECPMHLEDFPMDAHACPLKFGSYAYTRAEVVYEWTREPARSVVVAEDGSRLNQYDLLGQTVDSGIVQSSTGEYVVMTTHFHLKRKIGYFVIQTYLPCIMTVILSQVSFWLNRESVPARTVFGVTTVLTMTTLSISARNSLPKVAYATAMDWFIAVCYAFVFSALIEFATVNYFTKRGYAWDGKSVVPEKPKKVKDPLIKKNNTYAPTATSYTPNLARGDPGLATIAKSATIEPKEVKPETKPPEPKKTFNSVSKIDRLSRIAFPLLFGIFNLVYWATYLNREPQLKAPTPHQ
T1 sequence (P28472 26-473): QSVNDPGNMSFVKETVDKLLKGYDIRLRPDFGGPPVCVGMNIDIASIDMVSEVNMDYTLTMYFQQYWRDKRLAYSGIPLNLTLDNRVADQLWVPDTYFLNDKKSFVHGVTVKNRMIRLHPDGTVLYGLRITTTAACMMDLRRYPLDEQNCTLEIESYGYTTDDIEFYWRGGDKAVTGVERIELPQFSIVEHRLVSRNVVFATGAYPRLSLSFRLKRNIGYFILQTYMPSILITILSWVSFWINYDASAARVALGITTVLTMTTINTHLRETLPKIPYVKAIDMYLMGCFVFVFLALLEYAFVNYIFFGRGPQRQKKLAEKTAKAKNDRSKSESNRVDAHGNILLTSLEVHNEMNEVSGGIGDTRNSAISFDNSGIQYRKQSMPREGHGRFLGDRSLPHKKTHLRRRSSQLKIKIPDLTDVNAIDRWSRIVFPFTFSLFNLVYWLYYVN
T1 sequence (P18507 40-475): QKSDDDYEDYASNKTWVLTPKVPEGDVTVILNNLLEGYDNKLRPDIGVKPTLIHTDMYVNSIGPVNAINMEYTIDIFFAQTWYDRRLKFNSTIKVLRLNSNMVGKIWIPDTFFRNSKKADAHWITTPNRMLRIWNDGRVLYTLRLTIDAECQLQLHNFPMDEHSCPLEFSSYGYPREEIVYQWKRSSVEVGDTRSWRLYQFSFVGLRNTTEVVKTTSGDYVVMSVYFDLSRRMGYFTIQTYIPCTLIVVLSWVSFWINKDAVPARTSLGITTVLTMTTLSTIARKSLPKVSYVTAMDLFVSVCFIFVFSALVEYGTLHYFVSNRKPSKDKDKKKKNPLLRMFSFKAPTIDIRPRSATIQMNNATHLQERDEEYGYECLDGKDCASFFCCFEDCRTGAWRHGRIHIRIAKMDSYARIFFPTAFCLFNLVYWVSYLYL
T2 sequence (Q99250 whole entry): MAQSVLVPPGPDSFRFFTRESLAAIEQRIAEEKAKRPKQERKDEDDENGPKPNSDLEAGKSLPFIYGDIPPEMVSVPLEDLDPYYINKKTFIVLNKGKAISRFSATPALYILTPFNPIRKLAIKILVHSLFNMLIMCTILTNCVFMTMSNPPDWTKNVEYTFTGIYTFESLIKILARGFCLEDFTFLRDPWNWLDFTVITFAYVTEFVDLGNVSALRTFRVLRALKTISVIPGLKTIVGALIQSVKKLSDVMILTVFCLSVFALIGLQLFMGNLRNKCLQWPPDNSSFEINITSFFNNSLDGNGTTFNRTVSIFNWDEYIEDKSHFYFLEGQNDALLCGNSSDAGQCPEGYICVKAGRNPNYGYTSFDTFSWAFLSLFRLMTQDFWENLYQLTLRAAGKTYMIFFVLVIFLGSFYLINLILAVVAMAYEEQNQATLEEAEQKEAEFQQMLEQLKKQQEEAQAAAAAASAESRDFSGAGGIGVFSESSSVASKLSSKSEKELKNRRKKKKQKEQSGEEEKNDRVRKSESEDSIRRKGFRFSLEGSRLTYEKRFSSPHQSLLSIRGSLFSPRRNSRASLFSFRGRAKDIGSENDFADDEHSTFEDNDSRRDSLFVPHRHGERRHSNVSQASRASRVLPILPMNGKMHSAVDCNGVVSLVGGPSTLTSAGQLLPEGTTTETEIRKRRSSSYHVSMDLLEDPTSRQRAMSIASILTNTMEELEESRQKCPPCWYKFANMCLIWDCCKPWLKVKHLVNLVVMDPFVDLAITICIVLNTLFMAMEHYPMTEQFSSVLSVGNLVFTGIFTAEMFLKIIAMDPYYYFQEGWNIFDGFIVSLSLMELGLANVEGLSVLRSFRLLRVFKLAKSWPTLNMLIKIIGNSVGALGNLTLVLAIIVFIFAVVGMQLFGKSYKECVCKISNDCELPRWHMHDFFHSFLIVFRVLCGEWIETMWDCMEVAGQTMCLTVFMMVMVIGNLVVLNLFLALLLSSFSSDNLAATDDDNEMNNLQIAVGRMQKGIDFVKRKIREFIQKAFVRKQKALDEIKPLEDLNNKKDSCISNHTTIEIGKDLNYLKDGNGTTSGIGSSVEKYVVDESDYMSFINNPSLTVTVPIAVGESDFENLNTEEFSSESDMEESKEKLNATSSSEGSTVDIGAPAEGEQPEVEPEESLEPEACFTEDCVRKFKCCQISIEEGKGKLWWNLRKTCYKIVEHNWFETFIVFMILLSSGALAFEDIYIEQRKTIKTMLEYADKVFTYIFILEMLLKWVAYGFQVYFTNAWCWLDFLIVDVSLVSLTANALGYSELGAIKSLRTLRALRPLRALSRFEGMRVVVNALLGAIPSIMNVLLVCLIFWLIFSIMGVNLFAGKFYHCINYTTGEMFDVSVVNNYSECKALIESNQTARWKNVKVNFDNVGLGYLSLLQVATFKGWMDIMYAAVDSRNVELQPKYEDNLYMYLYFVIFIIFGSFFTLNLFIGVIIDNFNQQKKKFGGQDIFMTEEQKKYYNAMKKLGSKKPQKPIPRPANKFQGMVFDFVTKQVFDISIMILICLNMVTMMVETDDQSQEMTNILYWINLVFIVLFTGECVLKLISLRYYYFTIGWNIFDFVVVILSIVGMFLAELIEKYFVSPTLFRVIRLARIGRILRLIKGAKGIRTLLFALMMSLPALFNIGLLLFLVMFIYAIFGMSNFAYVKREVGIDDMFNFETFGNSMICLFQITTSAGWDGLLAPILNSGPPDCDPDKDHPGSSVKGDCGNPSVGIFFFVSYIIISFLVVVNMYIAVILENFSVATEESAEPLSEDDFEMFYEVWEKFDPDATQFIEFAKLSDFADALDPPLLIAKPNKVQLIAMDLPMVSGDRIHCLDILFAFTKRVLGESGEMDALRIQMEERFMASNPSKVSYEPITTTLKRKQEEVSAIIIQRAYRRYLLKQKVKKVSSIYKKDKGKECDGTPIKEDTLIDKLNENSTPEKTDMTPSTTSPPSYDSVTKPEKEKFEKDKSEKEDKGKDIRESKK

Compound: CN1C(=O)CN=C(c2ccccc2)c2cc(Cl)ccc21 [Diazepam, diazepam]
- Emax at 1 µM ([1]; HEK293, read-out: Emax, potentiation of GABA-induced current amplitude): 218%

Compound: CCC1(c2ccccc2)C(=O)NC(=O)NC1=O [Phenobarbital, phenobarbital]
- ED50 (95% CI) in corneal kindling mice ([2]; ref Matagne et al.[40]): 11 ^c (7, 15) mg/kg

Compound: O=C1CN=C(c2ccccc2Cl)c2cc([N+](=O)[O-])ccc2N1 [Clonazepam, clonazepam]
- ED50 (95% CI) in corneal kindling mice ([2]; ref Matagne et al.[40]): 0.04 ^c (0.02, 0.07) mg/kg

Compound: NC(=O)N1c2ccccc2C=Cc2ccccc21 [Carbamazepine, carbamazepine]
- ED50 (95% CI) in corneal kindling mice ([2]; ref Matagne et al.[40]): 9 ^c (5, 11) mg/kg

Compound: CNCCCN1c2ccccc2CCc2ccccc21 [Desipramine, desipramine, reference compound]
- IC50 [3]: 4.9 µM

Compound: CCC1(C)CC(=O)NC1=O (stereo not shown) [Ethosuximide, ethosuximide]
- ED50 (95% CI) in corneal kindling mice ([2]; ref Matagne et al.[40]): >254 ^c mg/kg

Compound: CC[C@@H](C(N)=O)N1CCCC1=O [Levetiracetam, levetiracetam]
- post-ADT/pre-ADT ratio ([4]; levetiracetam 25 mg/kg oral): 127%
- Minimum effective dose, amygdala kindling (rat) ([4]; oral, footnote a: minimum effective dose): 25 mg/kg
- ED50 ([5]; Mus musculus, oral, 1 hour before electrostimulation, ddY mice, read-out: ED50 (95% CI), 6 Hz-44 mA psychomotor seizures): > 200 mg/kg
- anti-seizure efficacy in 6 Hz-44 mA psychomotor seizures ([5]; levetiracetam 20-200 mg/kg oral): did not show ≥50% efficacy
- TD50 (95% CI) in mouse rotarod test [6]: >500 ^b mg/kg
- ED50 (95% CI) in corneal kindling mice ([2]; ref Matagne et al.[40]): 16 ^c (6, 43) mg/kg

Compound: Cc1ccsc1C(=CCCN1CCC[C@@H](C(=O)O)C1)c1sccc1C [Tiagabine, tiagabine, reference compound]
- EC50 ([1]; GABA 13 μM, -80 mV, read-out: EC50, potentiation of GABA-induced current amplitude): 4.8 µM
- Emax at 100 µM ([1]; HEK293, at 100 μM, control response GABA (13 μM)-induced current, read-out: Emax, potentiation of GABA-induced current amplitude): 153%
- TD50 (95% CI) in mouse rotarod test [6]: 1.29 ^b mg/kg
- effect on basal extracellular GABA concentration [7]: significantly increased
- effect on high-potassium-induced extracellular GABA concentration [7]: significantly increased
- ED50 (95% CI) in corneal kindling mice ([2]; ref Madsen et al.[38]): 0.51 ^a mg/kg

Compound: CCCC(CCC)C(=O)O [Valproate, valproate]
- ED50 (95% CI) in corneal kindling mice ([2]; ref Matagne et al.[40]): 110 ^c (83, 143) mg/kg
